Source: US8242055B2, “Herbicidally and insecticidally active phenyl-substituted pyridazinones” (Bayer Cropscience AG, priority 2008, dated 2012)
Values belong to the compound of their own block, whether it stands above or below them.

Legend:
Meloidogyne incognita = Meloidogyne incognita test (MELGIN); assay type: in vivo; conditions: application rate 20 ppm, lettuce roots; 100% = no galls formed
Method: [table] To produce a suitable preparation of active compound, 1 part by weight of active compound is mixed with the stated amounts of solvents and emulsifier, and the concentrate is diluted with water to the desired concentration. Containers are filled with sand, solution of active compound, Meloidogyne incognita egg/larvae suspension and lettuce seeds. The lettuce seeds germinate and the plants develop. On the roots, galls are formed. After the desired period of time, the nematicidal activity is determined in % by the formation of galls. 100% means that no galls are formed; 0% means that the number of galls on the treated plants corresponds to that of the untreated control.

[1] = tested on: eggs of the tobacco bud worm (Heliothis virescens); test: Heliothis virescens test (spray treatment); assay type: in vivo; conditions: spray treatment of soybean leaves, application rate 500 g/ha, after 7 days; 100% = all eggs killed
Method: [table] To produce a suitable preparation of active compound, 1 part by weight of active compound is mixed with the stated amounts of solvents and emulsifier, and the concentrate is diluted with emulsifier-containing water to the desired concentration. Soybean leaves (Glycine max.) are sprayed with an active compound preparation of the desired concentration and, after drying, populated with eggs of the tobacco bud worm (Heliothis virescens). After 7 days, the effect in % is determined. 100% means that all the eggs have been killed; 0% means that none of the eggs have been killed.

- melting point: 315 °C
SMILES: Cn1ncc(O)c(-c2ccc(Cl)c(Cl)c2)c1=O [I-1-a-4, 4-(3,4-dichlorophenyl)-5-hydroxy-2-methyl-3(2H)-pyridazinone]

SMILES: CC(C)(C)n1ncc(O)c(-c2cc(-c3ccc(Cl)cc3)ccc2Cl)c1=O [I-1-a-10]
- nematicidal activity in % by the formation of galls (Meloidogyne incognita): at least 80%

SMILES: CC(C)(C)n1ncc(O)c(-c2ccc(Cl)cc2Cl)c1=O [I-1-a-5]
- effect in % (eggs killed) [1]: at least 80%
